The values that follow come from patent US20220054477A1, “INDUCTION OF SUSTAINED LOCAL INFLAMMATION” (Ascendis Pharma Oncology Division A/S, priority 2019, published 2022).

Marks after values point to notes of the source that are not given here.

In one data set the test system is CCL2/MCP-1. Description: In vivo cytokine induction, plasma cytokine levels: CCL2/MCP-1 (Example 12). As to conditions: single intratumoral dose. Set-up: species or system BALB/C mice. As to the method:
Mice were subcutaneously implanted with 3×10^5 CT26 tumor cells in the left and right flanks. […] Hydrogels were administered as suspensions in PBST buffer. K2 EDTA-preserved blood samples were collected by retro-orbital bleed at various time points following drug administration and plasma was isolated following centrifugation at 2000×g for 5 minutes at 4° C. and frozen. Plasma samples were stored at −80° C. Plasma was thawed and undiluted samples were assessed for cytokine levels using the 36-Plex Mouse ProcartaPlex™ Cytokine Panel 1A (ThermoFisher Scientific) following manufacturer's recommendations. Cytokines were measured on the Bio-Plex 200 (BioRad) following kit instructions. For sample values below or at the lower limit of quantitation (LLOQ) of the assay, a value of 0.01 pg/mL was instead used in determining mean cytokine concentrations.

The subject of data set [1] is Ly-6C+ MHCII+ antigen presenting cells. Kind of data set: Flow cytometry of tumor draining lymph nodes: frequency of IA-IE (MHCII)+ antigen presenting cells of Ly-6C+ antigen presenting cells (Example 15). In kind it is in vivo, BALB/C mice. Particulars: 7 days after randomization. As to the method: Hydrogels were administered as suspension in PTP buffer. Some cohorts were further treated with 20 μg human IL-2 (Peprotech, Rocky Hill, N.J.), intraperitoneally (I.P.), twice a day for 5 days. Mice were sacrificed 7 days after randomization (D0). Following sacrifice, tumor draining lymph nodes were isolated from both flanks and were dissociated mechanically to generate a single cell suspension at a cell concentration of 1×10^6 cells per sample. Cell suspensions were centrifuged at 300 g for 5 minutes. Supernatants were discarded and cells were resuspended in FACS buffer with 1 μg/ml Fc-Block and incubated at 4° C. for 10 minutes in the dark. Surface marker antibody mixtures (antibody concentration: 10 μg/mL) in FACS buffer were added to each sample and samples were incubated in the dark at 4° C. for 30 minutes. Cells were centrifuged at 300 g for 5 minutes and supernatants were discarded. Cells were washed and then resuspended with FACS buffer before cytometer collection.
After collection, FACS data was analyzed using FlowJo Version 10.6.1. Compensation was digitally adjusted using single antibody-stained beads. Samples with less than 90% viability, as determined by LiveDead cell staining, were excluded from the analysis. […]

In a further data set the test system is Ifna4. Description: PBMC gene expression (qPCR, 6 hours post-treatment): Ifna4 (Example 17). In kind it is in vivo, BALB/C mice. As to the method: Hydrogels were administered as suspensions in PTP buffer. […] Tumors were excised, weighed and snap frozen.
For PBMC isolations, approximately 600 μl of whole blood was collected via cardiac puncture. The collected whole blood from each individual mouse was diluted with a 1:1 ratio of pre-warmed PBS supplemented with 2% Fetal Bovine Serum (FBS). Then an equal volume of Histopaque-1083 was added to a new sterile 15 mL conical tube, where the diluted whole blood was layered over the Histopaque-1083. The mixture was then centrifuged at 400 g for 30 minutes. […]
Lysates from untreated control samples and 6 hour treated samples were thawed and RNA was isolated using the RNeasy Mini Kit (QIAGEN) following manufacturer's recommendations. […] RNA concentrations were measured using a NanoDrop (ThermoFisher) and then adjusted to […] with RNase-free water. RNA quality was assessed using a NanoDrop (ThermoFisher). […] 200 ng of cDNA was used for quantitative PCR using the RT^2 SYBR Green ROX qPCR Master mix (2×) kit (QIAGEN) following manufacturer's recommendations. […]
Cycle thresholds (CT) were collected using a 384-well platform ABI-7900H real-time qPCR system (Applied Biosystems). […] 2^ΔΔCT values were calculated with the following formula: […]
For each gene, 3 technical replicates were analyzed per biological replicate. Undetermined technical replicate CT values were recorded as zero ΔCT values. […]

Details of data set [2]: species or system WISTAR rats. As to conditions: rat, in vivo, sc, 25 ug. An excerpt: Hydrogels were suspended (ca. 6% wt/v) PBST buffer at pH 7.4. […] Blood samples were withdrawn and used for plasma generation over the course of 28 d. […] Plasma concentration profiles were generated and analyzed with Phoenix WinNonlin software (Certara, Princeton, N.J., USA).

Consider Resiquimod [Compound 4], for which the “CCL2/MCP-1 plasma level, Mean” value is given as 357.83 pg/mL in the data set on CCL2/MCP-1 (1 h post-treatment); 4230.35†, ‡ pg/mL in the data set with CCL2/MCP-1 (3 h post-treatment); 1039.17†, ‡ pg/mL in the data set on CCL2/MCP-1 (6 h post-treatment); 847.07† pg/mL with CCL2/MCP-1 (10 h post-treatment); 92.58 pg/mL in the data set with CCL2/MCP-1 (24 h post-treatment). For the same substance, the figures for the “Frequency of IA-IE (MHCII)+ antigen presenting cells of Ly-6C+ antigen presenting cells, Mean” value in data set [1] (injected right flank tumor) and in data set [1] (uninjected left flank tumor) were 69.63% and 35.05%, respectively. Moreover, the “Ifna4 Mean (2^ΔΔCT)” value with Ifna4 came out at 2.97. The “Ifna4 Fold change (4/13i)” value in the data set on Ifna4 (ratio of 4 to 13i) came out at 20.48. In addition, in data set [2], the “AUCPred-∞” value turned out to be 65.4 ng·h/mL. Also, the maximum concentration (Cmax) in data set [2] was 23.1 ng/mL. In addition, the “t1/2 (biphasic), first value” in data set [2] is given as 1.5 h. The “t1/2 (biphasic), second value” in data set [2] amounted to 10 h.
